In brackets after ≈: the same amount, converted by molar mass.
Experiments:
[1] = system: Salmonella typhimurium; test: Antibacterial activity against Salmonella typhimurium DT104 in the presence of NaCl by MH broth based assay; type: functional, Salmonella enterica subsp. enterica serovar Typhimurium; conditions: Salmonella enterica
[2] = system: Salmonella typhimurium; test: Antibacterial activity against Salmonella typhimurium DT104 in the presence of KCl by MH broth based assay; type: functional, Salmonella enterica subsp. enterica serovar Typhimurium; conditions: Salmonella enterica
[3] = system: Salmonella typhimurium; test: Antibacterial activity against Salmonella typhimurium DT104 in the presence of NH4Cl by MH broth based assay; type: functional, Salmonella enterica subsp. enterica serovar Typhimurium; conditions: Salmonella enterica
[4] = system: Salmonella typhimurium; test: Antibacterial activity against Salmonella typhimurium DT104 in the presence of CaCl2 by MH broth based assay; type: functional, Salmonella enterica subsp. enterica serovar Typhimurium; conditions: Salmonella enterica
[5] = system: Salmonella typhimurium; test: Antibacterial activity against Salmonella typhimurium DT104 in the presence of MgCl2 by MH broth based assay; type: functional, Salmonella enterica subsp. enterica serovar Typhimurium; conditions: Salmonella enterica
[6] = system: Salmonella typhimurium; test: Antibacterial activity against Salmonella typhimurium DT104 in the presence of FeCl3 by MH broth based assay; type: functional, Salmonella enterica subsp. enterica serovar Typhimurium; conditions: Salmonella enterica
[7] = system: Salmonella typhimurium; test: Antibacterial activity against Salmonella typhimurium DT104 in the presence 25% inactivated mouse serum by MH broth based assay; type: functional, Salmonella enterica subsp. enterica serovar Typhimurium; conditions: Salmonella enterica
[8] = system: Salmonella typhimurium; test: Antibacterial activity against Salmonella typhimurium DT104 in the presence 50% inactivated mouse serum by MH broth based assay; type: functional, Salmonella enterica subsp. enterica serovar Typhimurium; conditions: Salmonella enterica
[9] = system: Erythrocyte; test: Hemolytic activity in human Red blood cells assessed as hemolysis incubated for 1 hrs by absorbance based microplate reader analysis; type: toxicity, cell-based

Row | SMILES | MIC [1] | MIC [2] | MIC [3] | MIC [4] | MIC [5] | MIC [6] | MIC [7] | MIC [8] | MHC [9]
1 | CC(C)C[C@H](NC(=O)[C@H](CCCNC(=N)N)NC(=O)CNC(=O)CNC(=O)[C@@H](N)CCCNC(=N)N)C(=O)N[C@H]1CSSC[C@@H](C(=O)N[C@H](C(=O)NCC(=O)N[C@@H](CCCNC(=N)N)C(N)=O)C(C)C)NC(=O)[C@H](C(C)C)NC(=O)[C@@H]2CSSC[C@H](NC(=O)[C@H](Cc3ccc(O)cc3)NC1=O)C(=O)N[C@@H](CCCNC(=N)N)C(=O)N[C@@H](CCCNC(=N)N)C(=O)N[C@@H](CCCNC(=N)N)C(=O)N[C@@H](Cc1ccccc1)C(=O)N2 | 16 µg/mL | 8 µg/mL | 8 µg/mL | 16 µg/mL | 8 µg/mL | 32 µg/mL | 32 µg/mL (≈ 14.8 µM) | 64 µg/mL (≈ 29.7 µM) | –
2 | [H]/N=C(/N)N[C@H]1[C@H](O)[C@@H](O)[C@H](O[C@@H]2O[C@@H](C)[C@](O)(C=O)[C@H]2O[C@@H]2O[C@@H](CO)[C@H](O)[C@@H](O)[C@@H]2NC)[C@@H](N/C(N)=N\[H])[C@@H]1O [STREPTOMYCIN] | – | – | – | – | – | – | – | – | > 128 µg/mL
